Source: patent publication US20140276107A1, “PHOTODYNAMIC DIAGNOSIS” (Photocure ASA, priority 2011, published 2014)

Tests used:
[1] = system: normal and Barrett's tissue of the esophagus; test: Spectrofluorimetry (LIFS) of PpIX fluorescence intensity in the esophagus of patients suffering from Barrett's esophagus; format: in vivo, human; conditions: for porphyrin (PpIX) fluorescence in normal tissue compared to Barrett's tissue: ALA 20 mg/kg orally 4-5 hours before endoscopy (5 subjects), HAL 8 mM solution by local instillation 2 hours before endoscopy (3 subjects)
Protocol: Spectrofluorimetry (LIFS) measurements (fluorescence intensity of PpIX in the esophagus) were carried out on 8 patients suffering from Barrett's esophagus. The measurements were carried out after oral administration of 5-ALA (ALA) or local instillation of 5-ALA hexyl ester (HAL) and the fluorescence intensity of normal and Barrett's tissue was compared.
LIFS was carried out using the Karl Storz D-light system. Abnormal cells could be clearly delineated against normal tissue due to the porphyrin fluorescence resulting from an accumulation of the ALA or HAL in the abnormal tissue. For this purpose, blue light of a specific spectral composition was introduced into the body via an endoscopic light guide system. • Patient group 1: 5 subjects each received 20 mg/kg body weight ALA orally, 4-5 hours before endoscopy. • Patient group 2: 3 subjects each received a 8 mM solution of HAL in an aqueous buffer by local instillation (100 mg in 50 mL, i.e. 0.2%), 2 hours before endoscopy.

[2] = system: dysplastic tissue in Barrett's esophagus; conditions: cited from earlier work

## NCC(=O)CCC(=O)O [ALA, 5-aminolevulinic acid]
[1]; FIG. 1
  porphyrin (PpIX) fluorescence in normal tissue compared to Barrett's tissue: significantly higher in normal tissue compared to Barrett's tissue
[2]; Brand et al. 2002
  distinction of high-grade dysplastic from non-dysplastic epithelial tissue: can distinguish
[2]; Stepinac et al. 2003
  detection of high-grade intraepithelial neoplasia and adenocarcinoma: effective
  detection of low-grade neoplastic tissue: not accurate
[2]; systemic application of 5-ALA at 20 mg/kg and 30 mg/kg, high rate of false positive fluorescence
  specificity for detection of dysplastic tissue: poor

## CCCCCCOC(=O)CCC(=O)CN [HAL, 5-ALA hexyl ester]
[1]; FIG. 1
  porphyrin (PpIX) fluorescence in normal tissue compared to Barrett's tissue: significantly higher in normal tissue compared to Barrett's tissue
[1]; FIG. 1, normal epithelium, HAL 8 mM local instillation vs ALA 20 mg/kg orally
  intensity of fluorescence in the normal epithelium, HAL versus ALA: lower
[1]; FIG. 2, one of the patients receiving HAL
  fluorescence intensity of PpIX in the Barrett and normal mucosa: stronger intensity for the normal mucosa
[1]; normal and Barrett epithelium, background fluorescence
  intensity of fluorescence in the normal and Barrett epithelium, HAL compared to ALA: lower intensity of fluorescence
